From patent publication US7183075B2, “Purified and isolated potassium-chloride cotransporter nucleic acids and polypeptides and therapeutic and screening methods using same” (Vanderbilt University, priority 2000, dated 2007)
Read-outs that look alike come from different tables or passages of the source.

Biological target: T1, mKCC4 (Mus musculus, UniProt Q9WVL3)
T1 construct: a full-length mKCC4 cDNA was used as a standard in the Xenopus expression vector pGEMHE; expressed in transfected cells; host or cells: Xenopus laevis oocytes injected with cRNA (pGEMHE, T7 transcript)
T1 sequence (Q9WVL3 1-1083 L71X/L155X/L467X/L586X/L639X/L1023X): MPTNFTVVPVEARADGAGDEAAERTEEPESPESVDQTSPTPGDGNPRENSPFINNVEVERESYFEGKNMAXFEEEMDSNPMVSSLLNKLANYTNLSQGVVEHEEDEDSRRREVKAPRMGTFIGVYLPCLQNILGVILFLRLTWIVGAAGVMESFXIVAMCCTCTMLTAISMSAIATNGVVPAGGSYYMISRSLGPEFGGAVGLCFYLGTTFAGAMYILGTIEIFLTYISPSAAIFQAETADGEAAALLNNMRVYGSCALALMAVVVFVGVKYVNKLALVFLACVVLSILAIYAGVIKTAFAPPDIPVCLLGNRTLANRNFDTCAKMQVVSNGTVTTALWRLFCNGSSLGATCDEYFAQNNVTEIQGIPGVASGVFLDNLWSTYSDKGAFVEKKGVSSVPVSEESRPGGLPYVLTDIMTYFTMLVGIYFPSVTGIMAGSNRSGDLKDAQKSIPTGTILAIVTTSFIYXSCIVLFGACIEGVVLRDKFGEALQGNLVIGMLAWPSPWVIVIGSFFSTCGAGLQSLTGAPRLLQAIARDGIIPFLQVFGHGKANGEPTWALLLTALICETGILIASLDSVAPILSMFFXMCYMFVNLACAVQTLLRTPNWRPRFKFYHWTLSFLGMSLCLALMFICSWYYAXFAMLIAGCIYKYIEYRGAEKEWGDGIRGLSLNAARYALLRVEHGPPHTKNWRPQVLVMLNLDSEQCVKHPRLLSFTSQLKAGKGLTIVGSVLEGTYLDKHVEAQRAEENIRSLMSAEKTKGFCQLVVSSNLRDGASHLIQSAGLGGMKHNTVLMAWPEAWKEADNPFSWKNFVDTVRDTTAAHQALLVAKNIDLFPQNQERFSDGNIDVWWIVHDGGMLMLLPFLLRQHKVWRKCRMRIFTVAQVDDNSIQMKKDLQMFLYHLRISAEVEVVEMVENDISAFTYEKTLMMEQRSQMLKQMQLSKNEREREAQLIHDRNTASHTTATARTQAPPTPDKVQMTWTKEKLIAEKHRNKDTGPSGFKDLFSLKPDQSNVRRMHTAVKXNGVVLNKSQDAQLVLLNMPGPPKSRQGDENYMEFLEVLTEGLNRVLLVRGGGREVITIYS
Assay: 86Rb+ uptake (K+-Cl- cotransport) in Xenopus oocytes injected with mKCC4 cRNA
Assay type: cell-based
Conditions: for relative KCC4 activity: 2 mM diuretic; for effect on activation of KCC4 by cell swelling: calyculin A 100 nM, okadaic acid 1 nM, cypermethrin 100 pM; for KCC4 function remaining: 100 μM DIDS
Procedure: Oocytes were surgically collected from anesthetized female Xenopus adults under 0.17% tricaine and incubated for 1 hour with vigorous shaking in frog Ringer ND96 (96 mM sodium chloride, 2 mM potassium chloride, 1.8 mM calcium chloride, 1.0 mM magnesium chloride, and 5 mM Hepes/Tris, pH 7.4) in the presence of 2 mg/ml collagenase B. Oocytes were then washed four times in ND96, manually defolliculated, and incubated overnight in ND96 at 18° C. On the next day, defolliculated stage V–VI oocytes were injected with 50 nl of water or a solution containing cRNA at a concentration of 0.25–0.5 μg/μl (25 ng/oocyte). Oocytes were incubated at 17–18° C. in ND96 (96 mM sodium chloride, 2 mM potassium chloride, 1.8 mM calcium chloride, 1.0 mM magnesium chloride, and 5 mM Hepes/Tris, pH 7.4), supplemented with 2.5 mM sodium pyruvate and 5 mg/100 ml gentamicin, for 3–4 days. The incubation medium was changed every 24 hours. On the day of the experiment, oocytes were switched to Cl^−-free ND96 (96 mM Na^+ Na^+ isethionate, 2 mM K^+ gluconate, 6 mM Ca^2+ gluconate, 1 mM Mg^2+ gluconate, 5 mM Hepes, 2.5 mM sodium pyruvate, 5 mg/100 ml gentamicin, pH 7.4) for 2 hours prior to the uptake assay.
For functional expression and in vitro translation, a full-length mKCC4 cDNA was used as a standard in the Xenopus expression vector pGEMHE (Liman et al. (1992) Neuron 9:861–871). The resulting construct contains nucleotides 55–3812 of mKCC4 (SEQ ID NO:13). For functional comparison with mKCC4, a full-length rabbit KCC1 cDNA was subcloned into pGEMHE. […] […] Transcription product integrity was confirmed on agarose gels, and concentration was determined by absorbance reading at 260 nm (DU 640 available from Beckman of Fullerton, Calif.).
K^+—Cl^− cotransport was assessed by measuring tracer ^86Rb^+ uptake (NEN® Life Science Products of Boston, Mass.) in experimental groups of at least 15 oocytes. […] All uptake solutions also contained 1.8 mM CaCl2, 1 mM MgCl2, 5 mM Hepes, pH 7.4, and were supplemented with 1 mM ouabain and […] ^86Rb^+. Isotonic conditions were generated by supplementing the same solutions with 3.5 g/100 ml sucrose to reach isosmolar conditions for oocytes (˜210 mOsm/kg). Ouabain was added to prevent ^86Rb^+ uptake via the Na^+—K^+-ATPase. The absence of extracellular Na^+ and the hypotonicity of the uptake medium prevented ^86Rb^+ uptake via the endogenous Na^+—K^+-2Cl^− cotransporter that is present in oocytes (Gamba et al. (1994) J Biol Chem 269:17713–17722).
All uptake assays were performed at 32° C. At the end of the uptake period, oocytes were washed five times in ice-cold uptake solution without isotope to remove extracellular fluid tracer. Oocytes were dissolved in 10% SDS, and tracer activity was determined for each oocyte by β-scintillation counting.
To determine the ion transport kinetics of KCC4 and KCC1, ^86Rb^+ uptake experiments were performed in variable concentrations of K^+ and Cl^−. […]

[1] = 2 mM extracellular K+, hypotonic
[2] = 50 mM extracellular K+, hypotonic
[3] = KCC4, counterion fixed at 50 mM, hypotonic
[4] = KCC4, counterion fixed at 50 mM, hypotonic, read-out: calculated apparent Km for extracellular ion concentration

Compound: CCN1C(=O)C=CC1=O [NEM, N-ethylmaleimide]
- reduction of KCC4-induced 86Rb+ uptake (1 mM NEM, hypotonic): 68%
- fold activation of KCC4 (1 mM NEM, isotonic): 5 fold
- 86Rb+ uptake in NEM-treated group (KCC4, 1 mM NEM, isotonic): 1062±70 pmol×oocyte^−1×hour^−1

Compound: CCCCNc1cc(C(=O)O)cc(S(N)(=O)=O)c1Oc1ccccc1 [bumetanide]
- relative KCC4 activity [1]: 90±4%
- relative KCC4 activity [2]: 17±4%
- IC50 (KCC4, 10 mM extracellular K+, read-out: apparent half-maximal inhibition (K=0.5) of Cl−-dependent 86Rb+ uptake): ~900 µM

Compound: C=C1[C@@H](O)[C@@H]2O[C@]3(CC[C@H](/C=C/[C@@H](C)[C@@H]4CC(C)=C[C@@]5(O[C@H](C[C@@](C)(O)C(=O)O)CC[C@H]5O)O4)O3)CC[C@H]2O[C@@H]1[C@@H](O)C[C@H](C)[C@H]1O[C@@]2(CCCCO2)CC[C@H]1C [okadaic acid]
- effect on activation of KCC4 by cell swelling (hypotonic): neither okadaic acid, nor cypermethrin prevented this activation

Compound: NS(=O)(=O)c1cc2c(cc1Cl)NC(C(Cl)Cl)NS2(=O)=O (stereo not drawn) [trichlormethiazide]
- relative KCC4 activity [1]: 79±3%
- relative KCC4 activity [2]: 57±9%

Compound: [K+] [Potassium]
- Hill coefficient (KCC4): 1.08±0.2
- calculated apparent Vmax for extracellular ion concentration [3]: 32,370±2,115 pmol×oocyte^−1×hour^−1
- Km [4]: 17.5 ± 2.7 mM
- Km (KCC4, read-out: Potassium Km): 17.5 mM

Compound: CC1(C)C(C=C(Cl)Cl)C1C(=O)OC(C#N)c1cccc(Oc2ccccc2)c1 (stereo not drawn) [cypermethrin]
- effect on activation of KCC4 by cell swelling (hypotonic): neither okadaic acid, nor cypermethrin prevented this activation

Compound: O=S(=O)(O)c1cc(N=C=S)ccc1C=Cc1ccc(N=C=S)cc1S(=O)(=O)O [DIDS]
- KCC4 function remaining [1]: 65±10%
- KCC4 function remaining [2]: 13±4%

Compound: Cl [Chloride]
- Hill coefficient (KCC4): 1.06±0.3
- calculated apparent Vmax for extracellular ion concentration [3]: 41,440±4,174 pmol×oocyte^−1×hour^−1
- Km [4]: 16.1 ± 4.2 mM
- Km (KCC4, read-out: Chloride Km): 15.3 mM

Compound: [Ba+2].[Cl-].[Cl-] [BaCl2]
- KCC4-induced influx, % of uptake in control oocytes (10 mM BaCl2 in hypotonic uptake medium): 58±4.3%

Compound: COC[C@@H]([C@H](O)[C@H](O)C(=O)NCC[C@H](C)c1nc(/C=C/C[C@@H]2O[C@]3(C[C@@H](O)[C@@H]2C)O[C@H]([C@H](C[C@H](O)[C@H](C)[C@H](O)[C@H](C)/C=C(C)/C(C)=C/C=C/C(C)=C\C#N)OC)[C@H](OP(=O)(O)O)C3(C)C)co1)N(C)C [calyculin A]
- effect on activation of KCC4 by cell swelling (hypotonic): completely prevents the activation

Compound: CCCCC1(C2CCCC2)Cc2cc(OCC(=O)O)c(Cl)c(Cl)c2C1=O (stereo not drawn) [DIOA]
- effect on KCC4-induced 86Rb+ uptake (100 μM DIOA, hypotonic): inhibition

Compound: HgCl2 [Hg—Cl2]
- response of KCC4 to mercury (50 μM HgCl2, hypotonic): sensitive
